Results published in the NIST ThermoML archive (doi:10.1021/je100679s).

Assay: xn = mol fraction of the nth substance listed
Settings: 101 kPa, Liquid; for electrical conductivity: DDS-307 conductivity meter

CCCCCCn1cc[n+](C)c1C.O=S(=O)([N-]S(=O)(=O)C(F)(F)F)C(F)(F)F + COC(=O)OC
Settings | electrical conductivity, 298.15 K [S/m] | electrical conductivity, 303.15 K [S/m] | electrical conductivity, 308.15 K [S/m] | electrical conductivity, 313.15 K [S/m] | mass density, 293.15 K [kg/m3] | mass density, 298.15 K [kg/m3] | mass density, 303.15 K [kg/m3] | mass density, 308.15 K [kg/m3] | mass density, 313.15 K [kg/m3]
x1 = 0.0466 | 0.34 | 0.378 | 0.416 | 0.454 | 1120.02 | 1113.88 | 1107.71 | 1101.52 | 1096.1
x1 = 0.0774 | 0.579 | 0.649 | 0.718 | 0.788 | 1145.97 | 1140.01 | 1134.13 | 1128.2 | 1123
x1 = 0.1154 | 0.755 | 0.82 | 0.884 | 0.949 | 1173.26 | 1167.46 | 1161.84 | 1156.12 | 1151.09
x1 = 0.1633 | 0.839 | 0.893 | 0.947 | 1 | 1201.7 | 1195.92 | 1190.53 | 1185.04 | 1180.2
x1 = 0.2269 | 0.813 | 0.862 | 0.91 | 0.959 | 1231.14 | 1225.5 | 1220.22 | 1214.85 | 1210.16
x1 = 0.3131 | 0.631 | 0.689 | 0.751 | 0.812 | 1261.37 | 1255.94 | 1250.93 | 1245.85 | –
x1 = 0.4385 | 0.509 | 0.553 | 0.61 | 0.667 | 1292.48 | 1287.18 | 1282.32 | 1277.48 | –
x1 = 0.6368 | 0.23 | 0.296 | 0.361 | 0.433 | 1324.48 | 1319.32 | 1314.7 | 1310.14 | –
x1 = 0.7472 | 0.164 | 0.209 | 0.275 | 0.35 | 1337.22 | 1332.18 | 1327.65 | 1323.1 | –
x1 = 1 | 0.108 | 0.158 | 0.213 | 0.271 | 1358.19 | 1353.11 | 1348.71 | 1344.29 | –
